This note sets out measurements from patent publication US20140128409A1, “MEDICAMENTS FOR THE TREATMENT OR PREVENTION OF FIBROTIC DISEASES” (BOEHRINGER INGELHEIM INTERNATIONAL GMBH, priority 2004, published 2014).

What all share (type): in vivo, rat
Assay [1] deals with fibronectin gene expression. In words: Expression of fibrotic marker gene fibronectin in lung following bleomycin-induced pulmonary fibrosis (real time PCR). As to conditions: bleomycin-treated rats, 50 mg/kg daily, day 21, versus bleomycin + vehicle; FIG. 3. The protocol:
(§1) All experiments were performed in accordance with German guidelines for animal welfare, performed by persons certified to work with animals and approved by the responsible authorities. Male Wistar rats were intratracheally injected with Bleomycin sulfate (10 U/kg body weight in 300 μl saline) or saline alone (saline control) using a catheter (0.5 mm internal diameter, 1.0 mm external diameter) through the nasal passage, following exposure to the anaesthetic Isofluorane for 5 minutes. The following day, the rats were orally treated with Example A (compound (134)) or saline suspended in 1 ml 0.1% Natrosol. Control rats were administered 1 ml 0.1% Natrosol (vehicle control).
(§2) 21 days following bleomycin instillation, the rats were killed with a lethal intraperitoneal injection of Narcoren™ (Pentobarbital Sodium, Rhone Merieux). The lungs were then removed, blotted dry and half was snap frozen in liquid nitrogen and stored at −80° C. The other half was fixed in 4% formalin for subsequent paraffin embedding and histology.
(§3) (B) Effect of a representative compound on expression of fibrotic marker genes following bleomycin-induced pulmonary fibrosis.
(§4) One part of the frozen lung tissue dedicated to investigation of gene expression was cut into small pieces using a sterile scalpel blade. […] The concentration of each sample was then measured using a spectrophotometer. […]
For orientation: Quantitative PCR measures a nucleic acid by following its amplification.

Assay [2] deals with procollagen I gene expression. In words: Expression of fibrotic marker gene procollagen I in lung following bleomycin-induced pulmonary fibrosis (real time PCR). As to conditions: bleomycin-treated rats, 50 mg/kg daily, day 21, versus bleomycin + vehicle; FIG. 2. Here is the method:
as §1, §2, §3, §4

In assay [3] the test system is bleomycin-induced pulmonary fibrosis. The assay is described as follows: Lung morphology following bleomycin-induced pulmonary fibrosis (histology, Masson's Trichrome collagen staining). As to conditions: male Wistar rats, bleomycin 10 U/kg intratracheally; 50 mg/kg daily orally, days 1-21; histology 21 days after instillation; FIG. 1C. Here is the method:
(A) Effect of a representative compound on lung morphology following bleomycin-induced pulmonary fibrosis. All experiments were performed in accordance with German guidelines for animal welfare, performed by persons certified to work with animals and approved by the responsible authorities. Male Wistar rats were intratracheally injected with Bleomycin sulfate (10 U/kg body weight in 300 μl saline) or saline alone (saline control) using a catheter (0.5 mm internal diameter, 1.0 mm external diameter) through the nasal passage, following exposure to the anaesthetic Isofluorane for 5 minutes. The following day, the rats were orally treated with Example A (compound (134)) or saline suspended in 1 ml 0.1% Natrosol. Control rats were administered 1 ml 0.1% Natrosol (vehicle control). [table] 21 days following bleomycin instillation, the rats were killed with a lethal intraperitoneal injection of Narcoren™ (Pentobarbital Sodium, Rhone Merieux). The lungs were then removed, blotted dry and half was snap frozen in liquid nitrogen and stored at −80° C. The other half was fixed in 4% formalin for subsequent paraffin embedding and histology. The lung tissues fixed in 4% formalin were embedded into paraffin and 5 μm sections were cut using a microtome (Leica SM200R) and placed on poly-L-lysine coated slides. […] Collagen deposition was assessed using Masson's Trichrome staining.

As for `CN(C)Cc1ccc(N/C(=C2\C(=O)Nc3cc(F)ccc32)c2ccc(CCC(=O)O)cc2)cc1` [Example A, 3-Z-[1-(4-dimethylaminomethylanilino)-1-(4-(2-carboxyethyl)phenyl)methylene]-6-fluoro-2-indolinone], the “fibronectin gene expression in lung (normalized to 18S)” value in assay [1] was “significant (p≦0.0001) inhibition”. In assay [2], the “procollagen I gene expression in lung (normalized to 18S)” value is “significant (p≦0.0001) inhibition”. Also, in assay [3], the “fibroblast infiltration or extracellular matrix deposition in lung” value is “little or no fibroblast infiltration or extracellular matrix deposition has occurred” and the “lung fibrosis (lung morphology, collagen deposition staining)” value was “consistent, nearly complete reversal of lung fibrosis”.
